Consider two molecules from patent US9511019B2, “Pharmaceutical compositions for treating IBD” (NORDIC PHARMA, priority 2009, dated 2016).

Each structure is given as a SMILES string.

The subject of the assay is TNBS colitis. Briefly: TNBS colitis in mice, macroscopic lesions by Wallace criteria. Format: in vivo, C57b16 mice. To be noted: for Wallace score (macroscopic lesions, scale 0 to 10): TNBS colitic mice, daily intrarectal administration from 3 days before to 4 days after induction, 5-ASA 0.5 mg, PMSB 2.34 mg/kg/day, untreated control 3.4; for action percentage in comparison to the Wallace score of untreated control: Wallace score 3.4 = 0% action, score 0 = 100% action.

Protocol: Induction of TNBS Colitis and Evaluation of Macroscopic Lesions in the Colitis after Administration of 5-ASA, PMSB, and Synergistic Combination of 5-ASA and PMSB.
Animal experiments were performed in accredited establishments according to governmental guidelines.
Colitis induction was conducted on C57b16 mice aged of 6 weeks old. They were anesthetized for 90-120 minutes before they received intrarectal administration of TNBS (trinitrobenzene sulphonic acid) (40 μl, 150 mg/kg) dissolved in a 1:1 mixture of 0.9% NaCl with 100% ethanol. Control mice received a 1:1 mixture of 0.9% NaCl with 100% ethanol or a saline solution using the same technique. Animals were sacrificed 4 days after TNBS administration. The anti-inflammatory effect of 5-ASA and steroid was evaluated by daily administration of these compounds by intrarectal route in a final volume of 50 μl, starting 3 days before the colitis induction and during all the experiment (4 days after colitis induction). Dosage amount of 5-ASA was 0.5 mg (50 μl of 1 g/100 ml stock), 65 mM and the dosage amount of PMSB was 2.34 mg/kg/day.
The macroscopic assessments of colitis were performed blindly by two investigators. The colon of each mouse was examined under a dissecting microscope (magnification, ×5), to evaluate the macroscopic lesions according to the Wallace criteria. The score rates macroscopic lesions on a scale of from 0 to 10 based on the features reflecting inflammation, such as hyperaemia, thickening of the bowel, and extent of ulceration. The Wallace scale is defined as follows. A score of 0 represents an absence of inflammation, a score of 1, a hyperaemia without ulcerations, a score of 2 a hyperaemia with a thickening of the mucosa without ulcerations, a score of 3, one ulceration without thickening of the colonic wall, a score of 4, two or more of ulcerative or inflammatory sites, a score of 5, two or more ulcerative and inflammatory sites with an extent of more than 1 cm, and for a score of from 6 to 10, an ulcerative or inflammatory site of growing size of from 2 to 6 cm.
A score of Wallace of 3.4 thus indicates an action of 0% and a score of 0, (no lesion) indicates 100% action. […] The action that the active ingredients would be expected to have in combination was calculated according to the Colby formula, and a comparison in the actions was then observed.
The Colby formula is E=X+Y−(XxY)/100, wherein E is the expected degree of action, expressed in %, when the active ingredients 5-ASA and prednisolone PMSB are used in combination. […] It is the degree of action converted from the Wallace score obtained for the A group. […] It is the degree of action converted from the Wallace score obtained for the P group.

In the case of `Nc1ccc(O)c(C(=O)O)c1` [Formulation 5-ASA, 5-aminosalicylic acid], the “Wallace score (macroscopic lesions, scale 0 to 10)” value stood at 1.25 and the “action percentage in comparison to the Wallace score of untreated control” value was 63%.

Turning to `C[C@]12C=CC(=O)C=C1CC[C@@H]1[C@@H]2[C@@H](O)C[C@@]2(C)[C@H]1CC[C@]2(O)C(=O)COC(=O)c1cccc(S(=O)(=O)O)c1` [PMSB, prednisolone metasulfobenzoate], the “Wallace score (macroscopic lesions, scale 0 to 10)” value is on record as 1.83 and the “action percentage in comparison to the Wallace score of untreated control” value was 46%.
